# Assay results reported in US20160067246A1, “USE OF PHOSPHODIESTERASE 5A INHIBITORS FOR THE TREATMENT OF MUSCULAR DYSTROPHY” (CEDARS-SINAI MEDICAL CENTER, priority 2013, published 2016).
# Several values for one entry are separate records, joined by “and”; a condition that tells them apart may be missing. Equal entries are not always repeated. Where two headings read alike, the source gives them in different places.
# Experiments:
# Format in all cases: in vivo, human
# [1] = system: boys with Duchenne muscular dystrophy (DMD); experiment: Functional sympatholysis (LBNP, NIR spectroscopy, rest vs handgrip) with PDE5 inhibition in DMD; settings: DMD
# Method: Forearm muscle oxygenation was measured with near-infrared (NIR) spectroscopy, as previously described.^4B Briefly, optodes were placed over the belly of the flexor digitorum profundus, the main muscle recruited during handgrip. The optodes were housed in a customized flexible rubber casing, ensuring a fixed and invariant position of the optodes relative to each other, and was secured to the skin with adhesive. The optodes were covered with an optically dense, black vinyl sheet, to minimize interference from external light or loss of NIR transmitted light. The forearm was wrapped with an elastic bandage to minimize movement of the optodes.
# Before each experiment, absorption and scattering coefficients were calibrated against an external standard. After each experiment, a cuff was inflated on the upper arm to supra-systolic pressure of 200 mmHg to establish the total labile signal (TLS, the difference between the baseline and nadir in muscle tissue oxygenation). Changes in forearm tissue oxygenation were expressed as a percentage of TLS.
# Handgrip exercise was performed with a dynamometer (Smedley Hand Dynamometer modified by Stoelting). To determine maximal voluntary contraction (MVC), each subject was asked to grip the dynamometer as hard as possible. […] Subjects performed intermittent isometric handgrip (20 handgrips per minute, 50% duty cycle) at 20% MVC for 7 minutes.
# The subjects lower body was enclosed in a negative pressure chamber to the level of the iliac crest as previously described.^9B The pressure of the chamber was measured by a Statham transducer (Gould Inc.). Lower body negative pressure (LBNP) at −20 mmHg simulates mild orthostatic stress (that is, transition from the supine to the seated position). This technique mainly unloads the cardiopulmonary baroreceptors, producing highly reproducible reflex increases in sympathetic vasoconstrictor drive to the skeletal muscle vasculature without changing systemic blood pressure.^9B
# The subjects' lower body was enclosed in a negative pressure chamber to the level of the iliac crest as previously described. The pressure in the chamber was measured by a Statham transducer (Gould Inc.). Lower body negative pressure (LBNP) at −20 to −30 mmHg simulates mild orthostatic stress caused by transition from the supine to the seated position. This technique mainly unloads the low-pressure cardiopulmonary baroreceptors, producing highly reproducible reflex increases in sympathetic vasoconstrictor drive to the skeletal muscle vasculature without changing systemic blood pressure. To measure exercise-induced attenuation of reflex vasoconstriction (i.e., functional sympatholysis), the LBNP was (i) applied at rest, and then (ii) superimposed on mild rhythmic handgrip at 20% MVC. Reflex vasoconstriction was measured as the LBNP-induced decrease in forearm muscle oxygenation by NIR spectroscopy. Using the pressure inside the LBNP chamber as a trigger, the Powerlab software was programed to mean the HbO2+MbO2 signal for 20 seconds before the onset of LBNP and for 20 seconds before the offset of LBNP; the difference between these mean values was taken as the LBNP-induced change in forearm muscle tissue oxygenation (20). Blood pressure, heart rate, and handgrip force were also recorded in response to 2 minutes of LBNP applied at rest and during the third to fifth minutes of the 7-minute exercise protocol.
# Patients received 0.5 mg/kg of oral sildenafil or tadalafil on day 1, followed by 1.0 mg/kg of sildenafil or tadalafil on day 2. Patients then crossed over 2 weeks later for the opposite drug. Experiments were performed 1 hour (sildenafil) or 3 hours (tadalafil) after oral treatment to match the experiment with the peak blood level. Patients were queried about potential side-effects throughout the study visit. […]
# [2] = Pharmacokinetic study and drug blood levels in boys with DMD; settings: for half-life: serum, oral, read-out: elimination half-life (converted)
# Method: Serum blood samples for pharmacokinetic determinations were collected from patients at time 0-hr, 0.25-hr, 0.5-hr, 1-hr, 2-hr, 4-hr, 8-hr, and 24-hr following each treatment (sildenafil and tadalafil) and each dose (0.5 vs. 1.0 mg/kg). Blood levels were measured with high-performance liquid chromatography-tandem mass spectrometry (NMS Labs).
# (§1) Patients received 0.5 mg/kg of oral sildenafil or tadalafil on day 1, followed by 1.0 mg/kg of sildenafil or tadalafil on day 2. Patients then crossed over 2 weeks later for the opposite drug. Experiments were performed 1 hour (sildenafil) or 3 hours (tadalafil) after oral treatment to match the experiment with the peak blood level. Patients were queried about potential side-effects throughout the study visit.
# [3] = system: boys with Duchenne muscular dystrophy (DMD); experiment: Safety data / side-effects of PDE5 inhibitors in boys with DMD
# Method: Subjects were studied in the supine position. Heart rate was measured continuously by electrocardiography, and blood pressure measured by automated oscillometric sphygomanometry using a child's cuff (Welch Allyn Vital Signs Monitor 300 Series).
# as §1
# [4] = system: patients with Becker muscular dystrophy (BMD); experiment: Blood pressure, heart rate and adverse events in BMD tadalafil trial
# Method: Subjects were studied in the supine position. Heart rate was measured continuously by electrocardiography and BP by automated oscillometric sphygmomanometry ([…] Monitor 300 Series, […].). […] The order of tadalafil/placebo was random. The research pharmacist placed tadalafil tablets or lactose powder (placebo) in opaque capsules to blind patients and investigators, both for the test dose and study dose of drug or placebo. Patients were queried about potential tadalafil-specific side-effects both for safety monitoring and to assess whether blinding was maintained. tadalafil blood levels were measured using high performance liquid chromatography/tandem mass spectrometry (NMS Labs Willow Grove, Pa.).
# [5] = 0.5 mg/kg oral, analysis of 10 of the 12 boys
# [6] = 0.5 mg/kg oral, analysis using all 12 boys
# [7] = 1.0 mg/kg oral, analysis of 10 of the 12 boys
# [8] = 1.0 mg/kg oral, analysis using all 12 boys
smiles,measurement,setting,value
CN1CC(=O)N2[C@H](c3ccc4c(c3)OCO4)c3[nH]c4ccccc4c3C[C@@H]2C1=O [tadalafil],attenuation of the reflex decrease in muscle oxygenation during handgrip,[1]; [5],45±8%
same,attenuation of the reflex decrease in muscle oxygenation during handgrip,"[1]; 0.5 mg/kg oral, analysis using all 12 boys (NIR in 10)",57±16%
same,LBNP-induced ΔHbO2+MbO2 (% TLS) at rest,[1]; [5],−20±2%
same,LBNP-induced ΔHbO2+MbO2 (% TLS) at rest,[1]; [6],−20±2%
same,LBNP-induced ΔHbO2+MbO2 (% TLS) during handgrip,[1]; [5],−11±1%
same,LBNP-induced ΔHbO2+MbO2 (% TLS) during handgrip,[1]; [6],−9±3%
same,attenuation of the reflex decrease in muscle oxygenation during handgrip,[1]; [7],63±5%
same,attenuation of the reflex decrease in muscle oxygenation during handgrip,"[1]; 1.0 mg/kg oral, analysis using all 12 boys (NIR in 10)",80±11%
same,LBNP-induced ΔHbO2+MbO2 (% TLS) at rest,[1]; [7],−17±1%
same,LBNP-induced ΔHbO2+MbO2 (% TLS) at rest,[1]; [8],−16±2%
same,LBNP-induced ΔHbO2+MbO2 (% TLS) during handgrip,[1]; [7],−7±1%
same,LBNP-induced ΔHbO2+MbO2 (% TLS) during handgrip,[1]; [8],−4±2%
same,peak blood level,"[2]; boys with DMD, 1.0 mg/kg oral",492.5 ± 47.3 ng/mL
same,time of peak blood level after oral administration,"[2]; boys with DMD, 0.5 and 1.0 mg/kg oral",2 to 4 h
same,time the drug remained elevated in the blood,"[2]; male, human, in vivo, po",up to 24 hours
same,half-life,"[2]; male, human, boys with DMD, 0.5 mg/kg dose",24.9 ± 3.1 h
same,half-life,"[2]; male, human, boys with DMD, 1.0 mg/kg dose",39.5 ± 6.6 h
same,duration of (penile) erection in an individual patient,[3]; higher dose 1.0 mg/kg,4 h
same,duration of (penile) erection in an individual patient,"[3]; low dose 0.5 mg/kg, 0.5 mg/kg",> 4 h and 3 h and 6 h
same,adverse events or side-effects,[4]; 10 mg test dose and 20 mg study dose,no adverse events or side-effects
same,diastolic blood pressure post-tadalafil,"[4]; post-tadalafil (pre 72±2), P>0.05",73±3 mm Hg
same,heart rate post-tadalafil,"[4]; post-tadalafil (pre 84±4), P>0.05",80±4 beats per minute
same,systolic blood pressure post-tadalafil,"[4]; post-tadalafil (pre 116±3), P>0.05",114±4 mmHg
